Measurements from US12569453B2, “Use of tapinarof for the treatment of atopic dermatitis” (Dermavant Sciences GmbH, priority 2018, dated 2026).

How the values were obtained:
Assay type in all cases: in vivo, human
[1] = Phase II AD study: plasma PK samples; settings: for concentration at 1 week: Week 1; for concentration at 2 week: Week 2; for concentration at 4 week: Week 4; for concentration at 8 week: Week 8
Experimental: Pharmacokinetics: A total of 5 blood samples for PK analysis of GSK2894512 were collected from each subject over the clinic visits at Weeks 1, 2, 4, 8, and 12. Plasma analysis was performed under the management of Bioanalytical Science and Toxicokinetics, DMPK, GSK.
Pharmacokinetics: Subjects with atopic dermatitis, BSA involvement >5% and <35%, excluding scalp, and Baseline IGA score of >3 at Baseline, participated in this study in which 2 concentrations of Tapinarof cream (0.5% and 1%) and a vehicle control were evaluated following application to all AD lesions (except on the scalp) once or twice daily for 12 weeks.
A total of 5 blood samples for PK analysis of Tapinarof were collected from each subject at the following clinic visits: Weeks 1, 2, 4, 8, and 12. Subjects were advised to provide PK samples during each of the following 3 time windows: 1 to 3 hours post application, 3 to 6 hours post application, and 6 to 12 hours post application.

[2] = system: adolescent and adult subjects with AD; assay: Phase II AD study: safety and tolerability
Experimental: (§1) Safety was assessed by the monitoring and recording of all AEs and serious adverse events (SAEs); evaluation of local (application site) tolerability; monitoring of hematology (including peripheral blood immunophenotyping and immunoglobulins), clinical chemistry, and vital signs; and the performance of ECGs and physical examinations.

[3] = system: adult subjects with psoriasis; assay: Phase II/2b psoriasis study: safety and tolerability
Experimental: as §1, with “Immunophenotyping” for “immunophenotyping”, “Immunoglobulins),” for “immunoglobulins),”
Safety assessments included incidence, frequency and severity of AEs, evaluation of local (application-site) tolerability, clinical laboratory parameters, vital signs, electrocardiogram changes, and physical examinations. An unblinded Independent Data Monitoring Committee monitored patient safety. Investigators assessed the overall degree of irritation at the application sites using a scale of 0 (no irritation) to 4 (very severe/strong reaction) at each study visit. A score of 3 or 4 was reported as an AE. Study treatment was discontinued if a score of 4 was noted. Subject-reported tolerability was assessed using a 5-point tolerability scale of 0 (none) to 4 (strong/severe) to assess the presence and degree of burning/stinging and itching at the application site within 2 hours following application of tapinarof or vehicle.

[4] = human, plasma, topical, 0.5 % cream BID, Subject 111301, 0.5% BID
[5] = human, plasma, topical, 0.5 % cream BID, Subject 316851, 0.5% BID
[6] = human, plasma, topical, 1 % cream BID, Subject 110406, 1% BID
[7] = human, plasma, topical, 1 % cream BID, Subject 110604, 1% BID
[8] = Japanese subjects, pooled active (n=30)
[9] = adolescent subjects, pooled active (n=49)
[10] = adult subjects, pooled active (n=116)
[11] = all cases in active treatment groups
[12] = pooled active treatment groups (n=165)
[13] = pooled active treatment groups (n=152)
[14] = pooled tapinarof groups (n=152)

CC(C)c1c(O)cc(/C=C/c2ccccc2)cc1O [Tapinarof, 3,5-Dihydroxy-4-isopropyl-trans-stilbene]
subjects with plasma concentration >0.84 ng/mL (minipig NOAEL Cmax) ([1]; 0.5% BID): 4 subjects
subjects with plasma concentration >0.84 ng/mL (minipig NOAEL Cmax) ([1]; 0.5% QD): 2 subjects
subjects with plasma concentration >0.84 ng/mL (minipig NOAEL Cmax) ([1]; 1% BID): 5 subjects
subjects with plasma concentration >0.84 ng/mL (minipig NOAEL Cmax) ([1]; 1% QD): 2 subjects
subjects with plasma concentration >0.84 ng/mL (minipig NOAEL Cmax) ([1]; all Tapinarof groups, out of 247): 13 subjects
concentration at 1 week [1, 4]: 6.09 ng/mL
concentration at 2 week [1, 4]: 0.438 ng/mL
concentration at 4 week [1, 4]: 0.649 ng/mL
concentration at 1 week [1, 5]: 0.362 ng/mL
concentration at 2 week [1, 5]: 0.106 ng/mL
concentration at 8 week [1, 5]: 1.93 ng/mL
concentration at 1 week [1, 6]: 0.233 ng/mL
concentration at 2 week [1, 6]: 0.347 ng/mL
concentration at 4 week [1, 6]: 4.9 ng/mL
concentration at 8 week [1, 6]: 0.514 ng/mL
concentration at 1 week [1, 7]: 1.48 ng/mL
concentration at 2 week [1, 7]: 0.266 ng/mL
concentration at 4 week [1, 7]: 0.43 ng/mL
concentration at 8 week [1, 7]: 0.0716 ng/mL
concentration at 12 week ([1]; human, plasma, topical, 1 % cream BID, Subject 110604, 1% BID, Week 12): 0.311 ng/mL
concentration at 2 week ([1]; human, plasma, topical, 1 % cream BID, Subject 316651, 1% BID): 181 ng/mL
quantifiable plasma samples ([1]; of 753 samples from subjects on active treatment, LLOQ 0.04 ng/mL): 348
Impetigo ([2]; 0.5% BID): 0 n
Serious TEAEs ([2]; 0.5% BID): 0 n
atopic dermatitis leading to study treatment discontinuation ([2]; 0.5% BID): 7%
subjects with abnormal clinically significant ECGs at any post-screening visit ([2]; 0.5% BID): 12%
Nasopharyngitis ([2]; 0.5% BID, listed as GSK2894512): 4 n
Impetigo ([2]; 0.5% QD): 0 n
Serious TEAEs ([2]; 0.5% QD): 0 n
atopic dermatitis leading to study treatment discontinuation ([2]; 0.5% QD): 2%
subjects with abnormal clinically significant ECGs at any post-screening visit ([2]; 0.5% QD): 21%
Nasopharyngitis ([2]; 0.5% QD, listed as GSK2894512): 1 n
subjects with abnormal clinically significant ECGs at any post-screening visit ([2]; 1% BID): 30%
Nasopharyngitis ([2]; 1% BID, listed as GSK2894512): 3 n
Acne ([2]; 1% QD): 0 n
Dermatitis atopic ([2]; 1% QD): 0 n
Discontinuous due to TEAEs ([2]; 1% QD): 0 n
Impetigo ([2]; 1% QD): 0 n
Serious TEAEs ([2]; 1% QD): 0 n
subjects with abnormal clinically significant ECGs at any post-screening visit ([2]; 1% QD): 24%
Nasopharyngitis ([2]; 1% QD, listed as GSK2894512): 5 n
subjects permanently discontinuing treatment due to TEAEs [2, 8]: 3%
subjects with mild TEAEs [2, 8]: 50%
subjects with moderate TEAEs [2, 8]: 10%
subjects with treatment-related TEAEs [2, 8]: 17%
atopic dermatitis AE, median duration ([2]; active treatment groups): 12.5 days
atopic dermatitis AE, median time to onset ([2]; active treatment groups): 40.5 days
headache, median duration ([2]; active treatment groups): 2 days
headache, median time to onset ([2]; active treatment groups): 2 days
nasopharyngitis, median duration ([2]; active treatment groups): 9 days
nasopharyngitis, median time to onset ([2]; active treatment groups): 32 days
upper respiratory tract infection, median duration ([2]; active treatment groups): 16.5 days
upper respiratory tract infection, median time to onset ([2]; active treatment groups): 32.5 days
subjects permanently discontinuing treatment due to TEAEs [2, 9]: 6%
subjects with mild TEAEs [2, 9]: 41%
subjects with moderate TEAEs [2, 9]: 14%
subjects with severe TEAEs [2, 9]: 2%
subjects with treatment-related TEAEs [2, 9]: 16%
subjects permanently discontinuing treatment due to TEAEs [2, 10]: 3%
subjects with mild TEAEs [2, 10]: 28%
subjects with moderate TEAEs [2, 10]: 25%
subjects with severe TEAEs [2, 10]: 3%
subjects with treatment-related TEAEs [2, 10]: 14%
folliculitis, median start date (since Day 1) [2, 11]: 17 days
subjects with elevations in liver chemistries (ALT/AST >2×ULN) ([2]; all in Tapinarof treatment groups): 6 subjects
treatment-related atopic dermatitis ([2]; pooled active groups): 1%
Acne ([2]; pooled active groups (n=165)): 4%
Impetigo ([2]; pooled active groups (n=165)): 1%
Nasopharyngitis ([2]; pooled active groups (n=165)): 8%
atopic dermatitis (worsening/flare) ([2]; pooled active groups (n=165)): 4%
atopic dermatitis leading to study treatment discontinuation ([2]; pooled active groups (n=165)): 2%
folliculitis ([2]; pooled active groups (n=165)): 11%
headache ([2]; pooled active groups (n=165)): 5%
treatment-related application site pain ([2]; pooled active groups (n=165)): 1%
treatment-related folliculitis ([2]; pooled active groups (n=165)): 5%
upper respiratory tract infection ([2]; pooled active groups (n=165)): 7%
subjects permanently discontinuing treatment due to TEAEs [2, 12]: 4%
subjects with TEAEs [2, 12]: 56%
subjects with mild TEAEs [2, 12]: 32%
subjects with moderate TEAEs [2, 12]: 22%
subjects with severe TEAEs [2, 12]: 2%
subjects with treatment-related TEAEs [2, 12]: 15%
subjects with TEAEs considered related to treatment ([2]; treatment groups pooled): 24 subjects
subjects with at least one AE ([2]; treatment groups pooled): 97 subjects
subjects with at least one TEAE ([2]; treatment groups pooled): 93 subjects
Application-site dermatitis ([3]; 0.5% BID): 0 n
Dermatitis allergic ([3]; 0.5% BID): 0 n
Miliaria ([3]; 0.5% BID): 0 n
Urticaria ([3]; 0.5% BID): 0 n
headache ([3]; 0.5% BID): 0 n
Acne ([3]; 0.5% QD): 0 n
Dermatitis allergic ([3]; 0.5% QD): 0 n
Serious TEAEs ([3]; 0.5% QD): 0 n
Urticaria ([3]; 0.5% QD): 0 n
Vomiting ([3]; 0.5% QD): 0 n
Miliaria ([3]; 1% BID): 0 n
Urticaria ([3]; 1% BID): 0 n
Vomiting ([3]; 1% BID): 0 n
Nasopharyngitis ([3]; 1% BID, listed as GSK2894512): 1 n
folliculitis ([3]; 1% BID, listed as GSK2894512): 8 n
Acne ([3]; 1% QD): 0 n
Dermatitis allergic ([3]; 1% QD): 0 n
Nasopharyngitis ([3]; 1% QD): 0 n
Vomiting ([3]; 1% QD): 0 n
folliculitis, median duration (resolved events) ([3]; active treatment groups): 55 days
folliculitis, median time to onset ([3]; active treatment groups): 26 days
headache, median duration ([3]; active treatment groups): 3 days
headache, median time to onset ([3]; active treatment groups): 2.5 days
nasopharyngitis, median duration ([3]; active treatment groups): 12 days
nasopharyngitis, median time to onset ([3]; active treatment groups): 13 days
contact dermatitis, median duration [3, 11]: 32 days
contact dermatitis, median time to onset [3, 11]: 30 days
subjects with serious TEAEs ([3]; all in Tapinarof treatment groups, none treatment-related): 7 subjects
Nasopharyngitis [3, 13]: 5%
Vomiting [3, 13]: 2%
headache [3, 13]: 4%
subjects permanently discontinuing treatment due to TEAEs [3, 13]: 10%
subjects with TEAEs [3, 13]: 56%
subjects with mild TEAEs [3, 13]: 27%
subjects with moderate TEAEs [3, 13]: 22%
subjects with severe TEAEs [3, 13]: 7%
subjects with treatment-related TEAEs [3, 13]: 22%
treatment-related monocyte count decreased [3, 13]: 1%
contact dermatitis [3, 14]: 8%
folliculitis [3, 14]: 13%
treatment-related folliculitis [3, 14]: 10%
subjects with TEAEs considered related to treatment ([3]; treatment groups pooled): 34 subjects
subjects with at least one AE ([3]; treatment groups pooled): 89 subjects
subjects with at least one TEAE ([3]; treatment groups pooled): 85 subjects
